# In US9598387B2 (Southern Research Institute, priority 2012, dated 2017):
# Assays:
# [1] = target: T1, human D3 dopamine receptor (Homo sapiens (Human), UniProt P35462); assay: Radioligand binding (125I-IABN competition), D3; conditions: for Ki: 125I-IABN competition, HEK cell membranes expressing human D3; for D2/D3 (D3 selectivity ratio, D2 Ki/D3 Ki): calculated D2 Ki/D3 Ki
# Procedure: (§1) The affinities of the target compounds were determined using radioligand binding experiments. […] Competition curves were modeled for a single site. Data from competition dose-response curves were analyzed using Tablecurve program (Jandel). IC50 values were converted to equilibrium dissociation constants (Ki values) using the Cheng and Prusoff correction.
# [2] = target: human D2-long dopamine receptor (Homo sapiens (Human), UniProt P14416); assay: Radioligand binding (125I-IABN competition), D2; conditions: HEK cell membranes expressing human D2-long
# Sequence of human D2-long dopamine receptor (P14416 whole entry): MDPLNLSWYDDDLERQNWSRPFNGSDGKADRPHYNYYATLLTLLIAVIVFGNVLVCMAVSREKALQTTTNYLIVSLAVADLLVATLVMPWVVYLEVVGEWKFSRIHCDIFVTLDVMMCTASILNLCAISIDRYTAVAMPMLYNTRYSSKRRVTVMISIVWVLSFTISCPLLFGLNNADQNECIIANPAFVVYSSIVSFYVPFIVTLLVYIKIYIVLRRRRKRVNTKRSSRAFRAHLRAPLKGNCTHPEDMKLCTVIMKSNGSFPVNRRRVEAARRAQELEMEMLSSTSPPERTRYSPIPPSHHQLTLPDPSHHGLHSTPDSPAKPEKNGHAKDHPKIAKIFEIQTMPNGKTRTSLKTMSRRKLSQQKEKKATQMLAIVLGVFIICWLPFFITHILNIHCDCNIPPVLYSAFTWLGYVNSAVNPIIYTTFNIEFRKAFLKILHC
# Procedure: as §1
# [3] = target: T1, human D3 dopamine receptor; assay: Whole Cell Adenylyl Cyclase Assay, D3; format: cell-based; conditions: inhibition of forskolin (100 μM) stimulated cAMP, normalized to quinpirole; compound conc ≥10× Ki (per compound); mean ± S.E.M.
# Procedure: (§2) The intrinsic activity of the compounds was evaluated by determining their ability to inhibit forskolin-dependent (100 μM) stimulation of adenylyl cyclase activity using a whole cell assay. A whole cell-cyclic AMP accumulation assay was performed with stably transfected HEK cells expressing human D2 or D3 dopamine receptors. This assay is an adaptation of an earlier published method (Su et al., Cyclic Nucleotide Res. 1976, 2, 257-285). Details regarding this method have been published (Chu, W. et al. Bioorg. Med. Chem. 2005, 13, 77-87; Taylor, M. et al. Synapse 2010, 64, 251-266). Confluent (60-80%) HEK cells transfected with recombinant D2-like dopamine receptors were grown in DMEM/10% fetal calf serum containing geneticin in […] flasks. The endogenous ATP pool is radioactively labeled by preincubating the cells in serum-free DMEM/25 mM Hepes medium containing 2 μCi/mL of [2,8-^3H]-adenine (20-Ci/mmol) in a 5% CO2 incubator at 37° C. for 75 min. The radioactive medium was removed by aspiration. Serum-free DMEM (5.6 mL) containing 25 mM HEPES, pH 7.4, and 0.1 mM of the phosphodiesterase inhibitor isobutylmethylxanthine was added to the flask. A […] aliquot of cells was removed and added to 50 μL of forskolin (100 μM) and 50 μL of test drug or quinpirole in DMEM-HEPES. The cells were incubated for 20 min at 37° C. (vortexing every 5 min). The reaction was terminated by the addition of 0.5 mL of 10% trichloroacetic acid (w/v) containing 1.0 mM unlabeled cyclic AMP as a recovery standard. Both the [^3H]-cyclic AMP and the [^3H]-ATP fractions were collected following separation using columns of Dowex AG-50W-X4 and alumina. The final yield of [^3H]-cyclic AMP is corrected for column recovery of unlabeled cyclic AMP determined spectrophotometrically (OD259). The results are reported as percent conversion of [^3H]-ATP into [^3H]-cyclic AMP. The values for the percent inhibition are reported as the actual percent of inhibition of the ^3H-cAMP accumulation relative to the assay performed in the absence of a test compound, minus basal activity. […] The percent maximum response is the value for the inhibition normalized to the value for the full agonist quinpirole.
# D2LR = D2LR (Homo sapiens (Human), UniProt P14416); assay: β-Arrestin Recruitment Assay, CHO-K1 DRD2L; format: cell-based; conditions: antagonist vs EC80 6 nM Pergolide, CHO-K1 DRD2L cells; read-out: D2 IC50
# Sequence of D2LR (P14416 whole entry): as above
# Procedure: (§3) Antagonist potency of the compounds against agonist induced recruitment of β-arrestin by D3R and D2LR was measured using DiscoverRx PathHunter eXpress kits. […] After incubation at 37° C. for 90 min, the DiscoveRx detection reagent was added, the plates were incubated at room temperature for 60 min and the luminescence was measured on a Synergy 4 plate reader (BioTek). The data were plotted and the agonist EC80 values were calculated using GraphPad Prism software. For antagonist activity, the cells were plated as described above and treated with multiple concentrations (starting from 500 nM, half log dilution, 10 dose points) of the test compounds in Plating Reagent with 0.1% DMSO.
# D3R [4] = target: T2, D3R (Homo sapiens (Human), UniProt P35462); assay: β-Arrestin Recruitment Assay, U2OS DRD3; format: cell-based; conditions: for IC50: antagonist vs EC80 8 nM PD128907, U2OS DRD3 cells, read-out: D3 IC50; for D2 IC50/D3 IC50: ratio of β-arrestin IC50 values
# T2 sequence (P35462 whole entry): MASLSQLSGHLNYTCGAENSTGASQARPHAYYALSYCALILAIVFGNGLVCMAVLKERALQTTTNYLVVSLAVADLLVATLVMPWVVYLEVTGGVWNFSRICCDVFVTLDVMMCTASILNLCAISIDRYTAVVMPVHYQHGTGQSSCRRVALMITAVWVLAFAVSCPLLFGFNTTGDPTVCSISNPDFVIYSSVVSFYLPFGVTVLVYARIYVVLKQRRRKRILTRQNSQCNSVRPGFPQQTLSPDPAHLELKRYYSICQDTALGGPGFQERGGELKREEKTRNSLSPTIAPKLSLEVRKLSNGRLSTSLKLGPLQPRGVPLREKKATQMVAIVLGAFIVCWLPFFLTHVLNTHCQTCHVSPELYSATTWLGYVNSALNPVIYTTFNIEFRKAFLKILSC
# Procedure: as §3
# D3R [5] = target: T2, D3R; assay: D3 Mitogenesis Functional Assay (3H-thymidine uptake, CHOp-D3 cells); format: cell-based; conditions: for EC50: CHOp-D3 cells, stimulation of mitogenesis, read-out: D3 Agonist EC50; for Emax at 10 µM: % maximum stimulation vs quinpirole (100%), read-out: D3 Agonist Emax; for D3 Antagonist Imax: inhibition of quinpirole stimulation of mitogenesis; for IC50: read-out: D3 Antagonist IC50
# Procedure: (§4) These assays are based on ^3H-thymidine uptake by cells that are proliferating.
# CHO cells expressing human D3 receptors (CHOp-D3 cells) were maintained in alpha-MEM with 10% fetal bovine serum (FBS, Atlas Biologicals), 0.05% pen-strep, and 200 μg/ml of G418. […] The cells are incubated at 37° C. in alpha-MEM with 10% FBS. After 48-72 hours, the cells are rinsed twice with serum-free alpha-MEM and incubated for 24 hours at 37° C. Serial dilutions of test compounds were made by the Biomek robotics system in serum-free alpha-MEM. In the functional assay for agonism, the medium is removed and replaced with 100 μL of test compound in serum-free alpha-MEM. In the antagonist assay, the serial dilution of the putative antagonist test compound was added in 90 μL (1.1× of final concentration) and 300 nM quinpirole (30 nM final) was added in 10 uL. After another 16-hour incubation at 37° C., 0.25 μCi of [^3H]thymidine in alpha-MEM supplemented with 10% FBS was added to each well and the plates were further incubated for 2 hours at 37° C. The cells were trypsinized by addition of 10× trypsin solution (1% trypsin in calcium-magnesium-free phosphate-buffered saline) and the plates were filtered and counted as usual. Quinpirole was run as an internal control and dopamine was included for comparative purposes. Butaclamol was run as the standard antagonist. Data were analyzed using GraphPAD Prism and agonist potency was expressed as EC50 values or % stimulation and antagonist potency was expressed as IC50 values. In these assays, based on the % maximum stimulation as compared to the standard agonist quinpirole (100%) the compounds were classified into following categories: ≧90% full agonist; 70-90% partial to full agonist; <70% partial agonist; 0-20% potential antagonist.
# [6] = target: human D2 dopamine receptors (Homo sapiens (Human), UniProt P14416); assay: Whole Cell Adenylyl Cyclase Assay, D2; format: cell-based; conditions: inhibition of forskolin (100 μM) stimulated cAMP, normalized to quinpirole; compound conc ≥10× Ki (per compound); mean ± S.E.M.
# Sequence of human D2 dopamine receptors (P14416 whole entry): as the sequence (P14416 whole entry) above
# Procedure: as §2
# human D2 receptors = human D2 receptors (Homo sapiens (Human), UniProt P14416); assay: D2 Mitogenesis Functional Assay (3H-thymidine uptake, CHOp-D2 cells); format: cell-based; conditions: for Emax at 10 µM: % maximum stimulation vs quinpirole (100%), read-out: D2 Agonist Emax; for Emax at 10 µM / D2 Antagonist Imax: at 10 μM; for D2 Antagonist Imax: inhibition of quinpirole stimulation of mitogenesis; for IC50: read-out: D2 Antagonist IC50
# Sequence of human D2 receptors (P14416 whole entry): as above
# Procedure: as §4
# CHO cells expressing human D2 receptors (CHOp-D2 cells) were maintained in alpha-MEM with 10% FCS, 0.05% pen-strep, and 200 μg/mL of G418. […] The cells were incubated at 37° C. in alpha-MEM with 10% FCS. After 48-72 hours, the cells were rinsed twice with serum-free alpha-MEM and incubated for 24 hours at 37° C. Serial dilutions of test compounds were made by the Biomek robotics system in serum-free alpha-MEM. In the functional assay for agonism, the medium was removed and replaced with 100 μL of test compound in serum-free alpha-MEM. In the antagonist assay, the serial dilution of the putative antagonist test compound was added in 90 μL (1.1× of final concentration) and 300 nM quinpirole (30 nM final) was added in […]. After another 24-hour incubation at 37° C., 0.25 μCi of [^3H]thymidine in alpha-MEM supplemented with 10% FCS was added to each well and the plates were further incubated for 2 hours at 37° C. The cells were trypsinized by addition of 10× trypsin solution (1% trypsin in calcium-magnesium-free phosphate-buffered saline) and the plates were filtered and counted as usual. Quinpirole was run as an internal control and dopamine was included for comparative purposes. Butaclamol was run as the standard antagonist.
# T1 sequence (P35462 whole entry): as the sequence (P35462 whole entry) above
Compound,Ki [1] [nM],"D2/D3 (D3 selectivity ratio, D2 Ki/D3 Ki) [1]",Ki [2] [nM],D3 Cyclase % Inhibition Normalized [3] [%],IC50 (D2LR) [nM],IC50 (D3R [4]) [nM],D2 IC50/D3 IC50 (D3R [4]),EC50 (D3R [5]) [nM],Emax at 10 µM (D3R [5]) [%],D3 Antagonist Imax (D3R [5]) [%],IC50 (D3R [5]) [nM],D2 Cyclase % Inhibition Normalized [6] [%],Emax at 10 µM (human D2 receptors) [%],D2 Antagonist Imax (human D2 receptors) [% at 10 μM],IC50 (human D2 receptors) [nM],"EC50 (human D2 receptors; CHOp-D2 cells, stimulation of mitogenesis, read-out: D2 Agonist EC50) [nM]"
"O=C(NCCCCN1CCN(c2ccnc3ccccc23)CC1)C1CCC(c2ccccc2)CC1 (centres unmarked) [Compound 104, 4-Phenyl-N-(4-(4-(quinolin-4-yl)piperazin-1-yl)butyl)cyclohexanecarboxamide]",35.3 ± 4.8,146,5160 ± 822,53.4 ± 13.0,> 500,33.7 ± 14.3,>15,–,–,–,–,–,–,–,–,–
"CC(C)(C)c1nc(N2CCN(CCCCNC(=O)N3CCC(c4ccccc4)CC3)CC2)cc(C(F)(F)F)n1 [Compound 48, N-(4-(4-(2-(tert-Butyl)-6-(trifluoromethyl)pyrimidin-4-yl)piperazin-1-yl)butyl)-4-phenylpiperidine-1-carboxamide]",11 ± 2.4,147,1620 ± 402,64.3 ± 10.4,> 500,28.1 ± 4.9,>18,> 10000,< 5,81.2,2000 ± 480,–,–,–,–,–
"CN(C)Cc1cccc2nc(C(=O)NCCCCN3CCN(c4cc(C(F)(F)F)nc(C(C)(C)C)n4)CC3)cn12 [Compound 121, N-(4-(4-(2-(tert-Butyl)-6-(trifluoromethyl)pyrimidin-4-yl)piperazin-1-yl)butyl)-5-((dimethylamino)methyl)imidazo[1,2-a]pyridine-2-carboxamide]",27.3 ± 3.4,11,298,–,281 ± 43,28.8 ± 2.7,10,–,–,–,–,–,–,–,–,–
"CC(C)(C)c1nc(N2CCN(CCCCNC(=O)N3CCN(c4cccc(C#N)c4)CC3)CC2)cc(C(F)(F)F)n1 [Compound 26, N-(4-(4-(2-(tert-Butyl)-6-(trifluoromethyl)pyrimidin-4-yl)piperazin-1-yl)butyl)-4-(3-cyanophenyl)piperazine-1-carboxamide]",8.7 ± 2.2,81,707 ± 96.2,20.0 ± 6.2,–,–,–,–,–,–,–,34.0 ± 9.1,–,–,–,–
"CC(C)(C)c1nc(N2CCN(CCCCNC(=O)N3Cc4ccccc4C3)CC2)cc(C(F)(F)F)n1 [Compound 39, N-(4-(4-(2-(tert-Butyl)-6-(trifluoromethyl)pyrimidin-4-yl)piperazin-1-yl)butyl)isoindoline-2-carboxamide]",12.2 ± 2,64,778 ± 29.5,19.8 ± 6.7,–,–,–,–,–,–,–,−24.0 ± 7.0,–,–,–,–
"CC(C)(C)c1nc(N2CCN(CCCCNC(=O)N3CCN(c4ccccn4)CC3)CC2)cc(C(F)(F)F)n1 [Compound 29, N-(4-(4-(2-(tert-Butyl)-6-(trifluoromethyl)pyrimidin-4-yl)piperazin-1-yl)butyl)-4-(pyridin-2-yl)piperazine-1-carboxamide]",8 ± 1.6,92,740 ± 98.3,60.9 ± 4.0,–,–,–,> 10000,< 5,83.8,54.7 ± 9.4,21.8 ± 6.6,< 1,99.9,232 ± 61,> 10000

# The next molecules have a lower Ki [1] than those just listed; values first:
Ki [1] [nM],"D2/D3 (D3 selectivity ratio, D2 Ki/D3 Ki) [1]",Ki [2] [nM],D3 Cyclase % Inhibition Normalized [3] [%],IC50 (D2LR) [nM],IC50 (D3R [4]) [nM],D2 IC50/D3 IC50 (D3R [4]),EC50 (D3R [5]) [nM],Emax at 10 µM (D3R [5]) [%],D3 Antagonist Imax (D3R [5]) [%],IC50 (D3R [5]) [nM],D2 Cyclase % Inhibition Normalized [6] [%],Emax at 10 µM (human D2 receptors) [%],D2 Antagonist Imax (human D2 receptors) [% at 10 μM],IC50 (human D2 receptors) [nM],"EC50 (human D2 receptors; CHOp-D2 cells, stimulation of mitogenesis, read-out: D2 Agonist EC50) [nM]",Compound
5.9 ± 1.1,77,455 ± 86,9.1 ± 5.8,–,–,–,–,–,–,–,6.1 ± 7.5,–,–,–,–,"CC(C)(C)c1nc(N2CCN(CCCCNC(=O)N3CCN(c4cccnc4)CC3)CC2)cc(C(F)(F)F)n1 [Compound 30, N-(4-(4-(2-(tert-Butyl)-6-(trifluoromethyl)pyrimidin-4-yl)piperazin-1-yl)butyl)-4-(pyridin-3-yl)piperazine-1-carboxamide]"
0.39 ± 0.1,54,21 ± 2.4,66.4 ± 16.4,–,–,–,–,< 20,93.1,3.43 ± 0.29,61.0 ± 4.5,< 20,91.0,14.6 ± 5.5,–,"O=C(NCCCCN1CCN(c2cccc(Cl)c2Cl)CC1)N1CCN(c2ccccc2)CC1 [Compound 3, N-(4-(4-(2,3-Dichlorophenyl)piperazin-1-yl)butyl)-4-phenylpiperazine-1-carboxamide]"
7.3 ± 1.6,93,680 ± 135,11.6 ± 3.1,–,–,–,–,–,–,–,−5.9 ± 5.4,–,–,–,–,"Cc1cc(N2CCN(CCCCNC(=O)N3CCC(n4c(=O)[nH]c5ccccc54)CC3)CC2)nc(C(C)(C)C)n1 [Compound 52, N-(4-(4-(2-(tert-Butyl)-6-methylpyrimidin-4-yl)piperazin-1-yl)butyl)-4-(2-oxo-2,3-dihydro-1H-benzo[d]imidazol-1-yl)piperidine-1-carboxamide]"
